Reference: patent US20230257385A1, “SALT AND SOLID FORMS OF TABERNANTHALOG” (priority 2021, published 2023)

Key:
[1] = Heat-up/cool down (HUCD) crystallization of the monofumarate salt (Experiment Reference 11); format: physicochemical; conditions: for XRPD (oven dried): form of product from HUCD crystallization of tabernanthalog fumarate Sample Reference 1 (Pattern #1), solvents per sample as in E1; for Observations (t = 0 @ T = 20° C.): input tabernanthalog fumarate Sample Reference 1 (Pattern #1), Solvent A/B: 11-A acetone/water, 11-B acetonitrile/water, 11-C butanol/water, 11-D tBME/methanol, 11-E DCM/methanol, 11-F ethanol/water, 11-G methyl acetate/water/methanol, 11-H 2-propanol/water, 11-1 methanol, 11-J MEK/water, 11-K 2-MeTHF/methanol, 11-L THF/water, 11-M toluene/methanol, 11-N water, 11-O dioxane/water, 11-P CPME/methan
Description: Separate portions of the tabernanthalog monofumarate salt (Pattern #1, Sample Reference 1, ca 75 mg, 1.0 wt.) were charged to separate vessels. The appropriate solvents (750 μl, 10.0 vol, refer to Table 106) were charged to the relevant vessels and subsequent charges of the appropriate co-solvent were made to accomplish dissolution at reflux. The solutions were cooled to 18 to 23° C. and allowed to stand undisturbed, until crystallization was judged complete. After this time the products were isolated by centrifugation, washed with recycled maturation solvent, dried under reduced pressure at 40° C. and analyzed by XRPD for evidence of alternative crystalline forms.

[2] = Targeted solubility of Tabernanthalog (native) in common solvents (Example 8, Experiment 1); format: physicochemical
Description: The solutions were observed after cooling to determine if crystallization occurred on standing at room temperature.
To portions of tabernanthalog (native) (50 mg, 1 wt), were added 5 vol aliquots of the relevant solvent (Table 198). Observations were made at 20° C., 40° C. and reflux and the mixtures were cooled to 20° C. Contingent upon these findings, an additional 5 vol aliquot of the relevant solvent was added and the process was repeated until 20 vol of solvent was added in total.

[3] = format: physicochemical; conditions: salt screen, Experiment 2
Description: Tabernanthalog (native) (50 mg, 1 wt) was charged to a solution of the relevant counter ion (1.0 mol equivalence of counter ion) in ethanol (5.0 vol, 250 μl). The mixtures were warmed to 85° C. and small aliquots of water were added until dissolution occurred (Table 212 for additional charges of solvent). The solutions were cooled and allowed to stand undisturbed under sub-ambient conditions overnight (Table 211). […] Products were isolated via centrifugation. The corresponding pellets were sub-sampled and analyzed wet by XRPD; after which, they were dried at 40° C. under reduced pressure over 20 h and reanalyzed by XRPD. […] Once the crystallization experiments were completed, salt formation was confirmed by ^1H NMR, XRPD, DSC and TGA.

## COc1ccc2c3c([nH]c2c1)CCN(C)CC3.O=C(O)/C=C/C(=O)O [Sample 11-1]
[1]
  XRPD (oven dried): Pattern #6b
  Observations (t = 0 @ T = 20° C.): suspension

## COc1ccc2c3c([nH]c2c1)CCN(C)CC3.O=C(O)/C=C/C(=O)O [Sample 11-A]
[1]
  XRPD (oven dried): Pattern #6a
  Observations (t = 0 @ T = 20° C.): suspension

## COc1ccc2c3c([nH]c2c1)CCN(C)CC3.O=C(O)/C=C/C(=O)O [Sample 11-B]
[1]
  XRPD (oven dried): Pattern #6a
  Observations (t = 0 @ T = 20° C.): cloudy

## COc1ccc2c3c([nH]c2c1)CCN(C)CC3.O=C(O)/C=C/C(=O)O [Sample 11-C]
[1]
  XRPD (oven dried): Pattern #6a
  Observations (t = 0 @ T = 20° C.): suspension

## COc1ccc2c3c([nH]c2c1)CCN(C)CC3.O=C(O)/C=C/C(=O)O [Sample 11-D]
[1]
  XRPD (oven dried): Pattern #5
  Observations (t = 0 @ T = 20° C.): cloudy

## COc1ccc2c3c([nH]c2c1)CCN(C)CC3.O=C(O)/C=C/C(=O)O [Sample 11-E]
[1]
  XRPD (oven dried): Pattern #6b
  Observations (t = 0 @ T = 20° C.): suspension

## COc1ccc2c3c([nH]c2c1)CCN(C)CC3.O=C(O)/C=C/C(=O)O [Sample 11-F]
[1]
  XRPD (oven dried): Pattern #6a
  Observations (t = 0 @ T = 20° C.): suspension

## COc1ccc2c3c([nH]c2c1)CCN(C)CC3.O=C(O)/C=C/C(=O)O [Sample 11-G]
[1]
  XRPD (oven dried): Pattern #1
  Observations (t = 0 @ T = 20° C.): suspension

## COc1ccc2c3c([nH]c2c1)CCN(C)CC3.O=C(O)/C=C/C(=O)O [Sample 11-H]
[1]
  XRPD (oven dried): Pattern #6a
  Observations (t = 0 @ T = 20° C.): cloudy

## COc1ccc2c3c([nH]c2c1)CCN(C)CC3.O=C(O)/C=C/C(=O)O [Sample 11-J]
[1]
  XRPD (oven dried): Pattern #6a
  Observations (t = 0 @ T = 20° C.): suspension

## COc1ccc2c3c([nH]c2c1)CCN(C)CC3.O=C(O)/C=C/C(=O)O [Sample 11-K]
[1]
  XRPD (oven dried): Pattern #5
  Observations (t = 0 @ T = 20° C.): suspension

## COc1ccc2c3c([nH]c2c1)CCN(C)CC3.O=C(O)/C=C/C(=O)O [Sample 11-L]
[1]
  XRPD (oven dried): Pattern #6a
  Observations (t = 0 @ T = 20° C.): solution

## COc1ccc2c3c([nH]c2c1)CCN(C)CC3.O=C(O)/C=C/C(=O)O [Sample 11-M]
[1]
  XRPD (oven dried): Pattern #6b
  Observations (t = 0 @ T = 20° C.): suspension

## COc1ccc2c3c([nH]c2c1)CCN(C)CC3.O=C(O)/C=C/C(=O)O [Sample 11-N]
[1]
  XRPD (oven dried): Pattern #6a
  Observations (t = 0 @ T = 20° C.): suspension

## COc1ccc2c3c([nH]c2c1)CCN(C)CC3.O=C(O)/C=C/C(=O)O [Sample 11-O]
[1]
  XRPD (oven dried): Pattern #6a
  Observations (t = 0 @ T = 20° C.): suspension

## COc1ccc2c3c([nH]c2c1)CCN(C)CC3.O=C(O)/C=C/C(=O)O [Sample 11-P]
[1]
  XRPD (oven dried): Pattern #5
  Observations (t = 0 @ T = 20° C.): suspension

## COc1ccc2c3c([nH]c2c1)CCN(C)CC3.O=C(O)/C=C/C(=O)O [Sample 11-Q]
[1]
  XRPD (oven dried): Pattern #5
  Observations (t = 0 @ T = 20° C.): solution

## COc1ccc2c3c([nH]c2c1)CCN(C)CC3 [Tabernanthalog (native), 8-Methoxy-3-methyl-2,4,5,6-tetrahydro-1H-azepino[4,5-b]indole]
[2]; 2-Methyl THF, 5 vol
  Solid on cooling: Yes
  Solution at reflux: ✓
[2]; 2-Propanol, 5 vol
  Solid on cooling: Yes
  Solution at reflux: ✓
[2]; 19 common solvents
  solubility in common solvents at 20° C.: freely soluble in most common solvents investigated at 20° C., apart from tBME, heptane and water
[2]; 19 common solvents, various volumes
  solubility in common solvents at reflux: soluble in 16 solvents at reflux
[2]; Acetone, 5 vol
  Solid on cooling: Yes
  Solution at reflux: ✓
[2]; Acetonitrile, 10 vol
  Solid on cooling: Yes
  Solution at reflux: ✓
[2]; Chlorobenzene, 5 vol
  Solid on cooling: Yes
  Solution at reflux: ✓
[2]; Dichloromethane, 5 vol
  Solid on cooling: Yes
  Solution at reflux: ✓
[2]; Ethanol, 5 vol
  Solid on cooling: Yes
  Solution at reflux: ✓
[2]; Ethyl acetate, 10 vol
  Solid on cooling: Yes
  Solution at reflux: ✓
[2]; Ethyl formate, 10 vol
  Solid on cooling: Yes
  Solution at reflux: ✓
[2]; Isopropyl acetate, 15 vol
  Solid on cooling: Yes
  Solution at reflux: ✓
[2]; Methanol, 5 vol
  Solid on cooling: Yes
  Solution at reflux: ✓
[2]; Methyl acetate, 10 vol
  Solid on cooling: Yes
  Solution at reflux: ✓
[2]; Methylethyl ketone, 5 vol
  Solid on cooling: Yes
  Solution at reflux: ✓
[2]; Nitromethane, 5 vol
  Solid on cooling: Yes
  Solution at reflux: ✓
[2]; Tetrahydrofuran, 5 vol
  Solid on cooling: Yes
  Solution at reflux: ✓
[2]; Toluene, 15 vol
  Solid on cooling: Yes
  Solution at reflux: ✓

## COc1ccc2c3c([nH]c2c1)CCN(C)CC3.O=C(O)CCCCC(=O)O [Tabernanthalog · Adipate]
[3]
  Discrete melt (DSC)?: ✓
  Flat baseline (DSC)?: ✓
  Unique XRPD?: ✓

## COc1ccc2c3c([nH]c2c1)CCN(C)CC3.O=C(O)CC(O)(CC(=O)O)C(=O)O [Tabernanthalog · Citrate]
[3]
  Unique XRPD?: v. Disordered

## COc1ccc2c3c([nH]c2c1)CCN(C)CC3.O=S(=O)(O)CCS(=O)(=O)O [Tabernanthalog · Edisylate]
[3]
  Unique XRPD?: Disordered

## COc1ccc2c3c([nH]c2c1)CCN(C)CC3.O=C(O)[C@@H](O)[C@H](O)[C@H](O)[C@@H](O)C(=O)O [Tabernanthalog · Galactarate]
[3]
  Flat baseline pre-melt (TGA)?: ✓
  Unique XRPD?: v. Disordered

## COc1ccc2c3c([nH]c2c1)CCN(C)CC3.O=C[C@H](O)[C@@H](O)[C@H](O)[C@H](O)C(=O)O [Tabernanthalog · Glucuronate]
[3]
  Discrete melt (DSC)?: ✓
  Flat baseline (DSC)?: ✓
  Flat baseline pre-melt (TGA)?: ✓
  Unique XRPD?: ✓

## COc1ccc2c3c([nH]c2c1)CCN(C)CC3.O=C(O)C[C@H](O)C(=O)O [Tabernanthalog · Malate]
[3]
  Discrete melt (DSC)?: ✓
  Flat baseline (DSC)?: ✓
  Flat baseline pre-melt (TGA)?: ✓
  Unique XRPD?: ✓

## COc1ccc2c3c([nH]c2c1)CCN(C)CC3.O=C(O)C=CC(=O)O [Tabernanthalog · Maleate]
[3]
  Unique XRPD?: Disordered

## COc1ccc2c3c([nH]c2c1)CCN(C)CC3.O=P(O)(O)O [Tabernanthalog · Phosphate]
[3]
  Discrete melt (DSC)?: ✓
  Flat baseline (DSC)?: ✓
  Unique XRPD?: Disordered

## COc1ccc2c3c([nH]c2c1)CCN(C)CC3 [Tabernanthalog · Sorbate]
[3]
  Discrete melt (DSC)?: ✓
  Flat baseline (DSC)?: ✓
  Flat baseline pre-melt (TGA)?: ✓
  Unique XRPD?: ✓

## COc1ccc2c3c([nH]c2c1)CCN(C)CC3.O=S(=O)(O)O [Tabernanthalog · Sulfate]
[3]
  Unique XRPD?: Amorphous

## COc1ccc2c3c([nH]c2c1)CCN(C)CC3.Cc1ccc(S(=O)(=O)O)cc1 [Tabernanthalog · Tosylate]
[3]
  Discrete melt (DSC)?: ✓
  Flat baseline (DSC)?: ✓
  Flat baseline pre-melt (TGA)?: ✓
  Unique XRPD?: ✓
